Assay results from patent US20230106519A1, “GOLD(III)-BIGUANIDE PRODRUGS, METHODS OF PREPARATION AND USES THEREOF” (National University of Singapore, priority 2020, published 2023).
“And” between values parts separate entries of the source, which are not always exact repeats. Equal entries are not always repeated.

How the values were obtained:
BiP, CHOP, p-elF2α = details: 0.5 and 2EC50, 2, 6 and 24 hours
Protocol: (§2) Western blotting. MDA-MB-231 cells were seeded into Cellstar 6-well plates (Greiner Bio-One) at a density of 60×10^4 cells/well (2 mL per well). After the cells were allowed to resume exponential growth for 24 hours, they were exposed to compounds of interest at various concentrations for 2, 6 and 24 hours. The cells were washed twice with PBS and lysed with RIPA buffer (50-100 μL) and kept for 5-10 minutes at 4° C. The samples were sonicated in ice bath (3 times for 30 seconds). The supernatant was then collected after centrifugation (1.3×10^4 rpm, 4° C. for 15 minutes) and total protein content of each sample was quantified via Bradford's assay. Equal quantities of protein (50 μg) were reconstituted in loading buffer (5× Laemmli Buffer with 5% DTT) and heated at 100° C. for 10 minutes. Subsequently, the protein mixtures were resolved on a 8%, 10% or 12% SDS-PAGE gel by electrophoresis (90 V for 30 minutes followed by 120 V for 60 minutes) and transferred onto a nitrocellulose membrane (200 mA for 2 hours). The protein bands were visualised with Ponceau S stain solution and the nitrocellulose membranes were cut into strips based on the protein ladder. The membranes were washed with a TBS-T wash buffer (0.1% Tween-20 in 1×PBS) 3 times for 5 minutes. […] Immune complexes were detected with Luminata HRP substrates and analysed using enhanced chemiluminescence imaging. […]

MDA-MB-231 cells [1] = system: MDA-MB-231 cells
Protocol: Mitochondrial bioenergetics (MitoStress assay): Oxygen Consumption Rate (OCR) was monitored by using Seahorse XF^e24 Cell MitoStress Test Kit (Seahorse Bioscience). Prior to the assay, XF sensor cartridges were hydrated. MDA-MB-231 cells were seeded onto XF^e24-well cell culture plates at a density of 4×10^4 cells/well in 250 μL DMEM complete growth medium and then incubated for 48 h at 37° C. in 5% CO2 incubator. The cells were subsequently exposed to compounds of interest at different concentrations for 24 hours. The wells were washed with 250 μL of pre-warmed Seahorse XF DMEM media, supplemented with 10 mM glucose, 1 mM sodium pyruvate and 2 mM glutamine, pH 7.4 and replaced with 525 μL of this media. The plate was incubated at 37° C. in a non-CO2 incubator for 1 hour before the measurement. Three baseline measurements of OCR were recorded and 1 μM of olygomycin (ATP synthase complex inhibitor), 1 μM of FCCP (ATP synthesis uncoupler trifluorocarbonylcyanide phenylhydrazone) and a mixture of 0.5 μM of antimycin-A (inhibitor of complex III) and 0.5 μM of rotenone (inhibitor of electron transfer from Fe-S center of complex I to ubiquinone) were added in sequence. OCR was measured using Seahorse XF^e24 Cell Bioanalyzer (Seahorse Biosciences). The media was removed from the wells and 60 μL of 0.1 M NaOH was added. After vigorous pipetting, the protein content was quantified by BCA assay and OCR was normalized per protein content.

[2] = system: A2780cisR (ovarian carcinoma); assay: MTT cytotoxicity assay, A2780cisR
Protocol: (§3) Human ovarian carcinoma cells A2780 and A2780cisR, and human breast adenocarcinoma MDA-MB-231 cells, murine hepatocytes TAMH and human cardiomyocytes AC10 were obtained from ATCC. […] The stock of cisplatin was commercially available clinical grade solution in saline buffer.
(§4) Inhibition of cell viability assay. The cytotoxicity of the compounds was determined by colorimetric MTT assay. The cells were harvested from culture flasks by trypsinization and seeded into Cellstar 96-well microculture plates at the seeding density of 6000 cells per well (6×10^4 cells/mL). TAMH and AC10 cells were seeded at 12000 and 5000 cells per well, respectively. After cells were allowed to resume exponential growth for 24 hours, they were exposed to drugs at different concentrations in media for 72 hours. The drugs were diluted in complete medium at the desired concentration and added to each well (100 μL) and serially diluted to other wells. After exposure for 72 hours, the media was replaced with MTT in media (5 mg/mL, 100 μL) and incubated for additional 45 minutes. Subsequently, the medium was aspirated and the purple formazan crystals formed in viable cells were dissolved in DMSO (100 μL). Optical densities were measured at 570 nm using the BioTek H1 Synergy microplate reader. […] Evaluation was based on means from at least three independent experiments, each comprising six replicates per concentration level.

[3] = Stability in ammonium carbonate buffer by high resolution ESI-MS; details: ammonium carbonate buffer pH 7.4, 37° C., 1, 3 and 24 hours
Protocol: NMR and mass spectrometric (MS) methods were employed to characterize the stability of Au complexes in DMSO and aqueous media. ^1H NMR stability studies were performed over the period of 6-10 days in d^6-DMSO and D2O (1met*).

[4] = system: A2780 (ovarian carcinoma); assay: MTT cytotoxicity assay, A2780; details: read-out: EC50 A2780; MTT assay, exposure time 72 hours
Protocol: as §3, §4

MDA-MB-231 tumors [5] = assay: Histopathological examination of H&E-stained tumors (QuPath)
[6] = system: MDA-MB-231 (breast adenocarcinoma); assay: MTT cytotoxicity assay, MDA-MB-231; details: read-out: EC50 MDA-MB-231; MTT assay, exposure time 72 hours
Protocol: as §3, §4

insulin receptor (IR) = insulin receptor (IR) (Homo sapiens, UniProt P06213); assay: Kinase screening, radioactive 33P-ATP filter-binding assay, IR; details: 10 μM of 3met
Protocol: (§5) Kinase screening was performed at the International Centre for Kinase profiling (University of Dundee, UK) according to literature procedure (Bain J, Plater L, Elliott M, Shpiro N, Hastie C J, McLauchlan H, et al. The selectivity of protein kinase inhibitors: a further update. Biochem J 2007; 408:297-315).

[7] = Reactivity towards glutathione, ligand release (HR-MS, UV-vis); type: physicochemical
Source text: NMR- and MS-based stability studies.
Intriguingly, the reactivity of Au^III-metformin complexes towards GSH was drastically different despite their similar structures.

MDA-MB-231 cells [8] = system: MDA-MB-231 cells; remark: listed apart in the source
Protocol: (§6) Inhibition of cell viability assay. The cytotoxicity of the compounds was determined by colorimetric MTT assay. The cells were harvested from culture flasks by trypsinization and seeded into Cellstar 96-well microculture plates at the seeding density of 6000 cells per well (6×10^4 cells/mL). TAMH and AC10 cells were seeded at 12000 and 5000 cells per well, respectively. After cells were allowed to resume exponential growth for 24 hours, they were exposed to drugs at different concentrations in media for 72 hours. The drugs were diluted in complete medium at the desired concentration and added to each well (100 μL) and serially diluted to other wells. After exposure for 72 hours, the media was replaced with MTT in media (5 mg/mL, 100 μL) and incubated for additional 45 minutes. Subsequently, the medium was aspirated and the purple formazan crystals formed in viable cells were dissolved in DMSO (100 μL). Optical densities were measured at 570 nm using the BioTek H1 Synergy microplate reader. […] Evaluation was based on means from at least three independent experiments, each comprising six replicates per concentration level. For experiments with inhibitors, MDA-MB-231 cells were seeded at the seeding density of 8000 cells per well (8×10^4 cells/mL).

rat liver TrxR = target: T1, rat liver TrxR (Rattus norvegicus, UniProt O89049); assay: Thioredoxin reductase inhibition, DTNB reduction assay; details: read-out: IC50 TrxR; DTNB reduction assay, exposure time 30 min
T1 sequence (O89049 1-499): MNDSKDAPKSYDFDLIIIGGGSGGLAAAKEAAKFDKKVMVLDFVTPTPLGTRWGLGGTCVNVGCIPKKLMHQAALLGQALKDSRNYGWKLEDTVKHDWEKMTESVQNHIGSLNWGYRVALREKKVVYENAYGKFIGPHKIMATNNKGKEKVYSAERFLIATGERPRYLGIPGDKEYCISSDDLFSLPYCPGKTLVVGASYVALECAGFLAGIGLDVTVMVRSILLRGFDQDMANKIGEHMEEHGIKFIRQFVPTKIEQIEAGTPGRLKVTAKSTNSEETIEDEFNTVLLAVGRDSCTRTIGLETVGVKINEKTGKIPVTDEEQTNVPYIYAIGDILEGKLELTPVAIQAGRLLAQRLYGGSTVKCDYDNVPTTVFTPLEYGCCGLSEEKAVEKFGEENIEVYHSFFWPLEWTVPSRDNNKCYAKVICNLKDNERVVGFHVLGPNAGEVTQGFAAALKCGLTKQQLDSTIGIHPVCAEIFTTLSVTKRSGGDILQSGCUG
Protocol: Thioredoxin reductase inhibition assay. Assay was performed according to the protocol provided by the manufacturer. […] Compounds of interest were serially diluted at the separate 96-well plate and 4 μl of each concentration was added to the appropriate wells. The reaction mixture was incubated with gentle shaking (room temperature, 30 minutes). Subsequently, 6 μl of DNTB (100 mM) was added and incubated for an additional 3 minutes.
Compounds of interest at six different concentrations were incubated with the isolated rat liver TrxR enzyme in the presence of NADPH for 30 minutes, followed by 2 minutes incubation with the DNTB reagent.

MDA-MB-231 cells [9] = system: MDA-MB-231 cells; remark: listed apart in the source
Protocol: Glycolysis Stress Test assay: Extracellular acidification rate (ECAR) was monitored by using Seahorse XF^e24 Glycolysis Stress Test Kit (Seahorse Bioscience). Prior to the assay, XF sensor cartridges were hydrated. MDA-MB-231 cells were seeded onto XF^e24-well cell culture plates at a density of 4×10^4 cells/well in 250 μL DMEM complete growth medium and then incubated for 48 hours at 37° C. in 5% CO2 incubator. The cells were subsequently exposed to compounds of interest at different concentrations for 24 hours. The wells were washed with 250 μL of pre-warmed Seahorse XF DMEM media, supplemented with 100 mM glutamine, pH 7.4 and replaced with 525 μL of this media. The plate was incubated at 37° C. in a non-CO2 incubator for 1 hour before the measurement. Three baseline measurements of ECAR were recorded and 10 mM of glucose, 1 μM of olygomycin and 100 mM of 2-deoxyglucose (2-DG) were added in sequence. ECAR was measured using Seahorse XF^e24 Cell Bioanalyzer (Seahorse Biosciences). The media was removed from the wells and 60 μL of 0.1 M NaOH was added. After vigorous pipetting, the protein content was quantified by BCA assay and OCR was normalized per protein content.

[10] = tumor-bearing mice
Protocol: Organ distribution studies: At the experimental endpoint, the hearts were perfused with PBS immediately before the excision of the organs. Brain, liver, kidney, spleen, heart, lung, bone and tumor tissues were collected from each mouse and flash-frozen in liquid nitrogen. The organs of the vehicle-treated mouse were used for the measurements of the background. The organs were lyophilized for 4 days, weighed, mechanically minced and digested in 100 μl of ultrapure 65% HNO3 at 105° C. for 3 days. The resulting solution was diluted to 2% v/v HNO3 with ultrapure Milli-Q water. Gold content was measured by ICP-MS as described above.
Additionally, the Au biodistribution across various organs in tumor-bearing mice was assessed.

[11] = Protocol: (§1) Animal experiments: 6-week-old female athymic nude mice were purchased from Invigo. Animals were housed in animal-holding units at Center for Comparative Medicine, Northwestern University in a pathogen-free environment at constant temperature in a 12/12-hour light/dark cycle. All animal procedures were carried out in accordance with a protocol approved by the Institutional Animal Care and Use Committee, Protocol number: IS00002999. Animals were acclimatized for 2 weeks following arrival before the beginning of experiments. Mice were allowed free access to food and water. […] MDA-MB-231 cells expressing firefly luciferase were collected by trypsinization and mixed with Matrigel (1:1) for fat pad injections. The MDA-MB-231 cell/matrigel mixture (100 μI) was injected into the fat pad of the fourth mammary glands on both sides of 6-week-old female athymic nude-Foxn1^nu mice (Envigo) at 2.5×10^5 cells/gland under ketamine/xylazine anesthesia (50-100/5-10 mg/kg). Ketaprofen and Buprenophrine SR were injected subcutaneously for pain management at 2-5 mg/kg and 0.5-1 mg/kg, respectively. The growth of tumors was monitored by live animal imaging. Once tumors became palpable (week 2 after tumor implantation), treatment was initiated. Animals were separated into two groups (7 mice in each group) and tumor dimensions were measured using a caliper by width×length (mm^2). […] Animals were sacrificed on week 6. Animals were controlled for distress development. Their weight changes were monitored every 2-3 days for 6 weeks. […] Statistical analysis was done by Student's unpaired T-test and One-way Anova test with post-hoc Dunnett test using GraphPad Prism 9 software.
The tolerability of the chosen dose level was judged based on the weight loss and clinical score.

[12] = system: c-Jun N-terminal kinase (JNK); details: MDA-MB-231, apparent after 24 hours
Protocol: as §2

[13] = system: AC10 (human ventricular cardiomyocytes); assay: MTT toxicity assay in cardiomyocytes AC10; details: read-out: EC50 AC10; MTT assay, exposure time 72 hours
Protocol: (§7) Cell lines and culture conditions. Human ovarian carcinoma cells A2780 and A2780cisR, and human breast adenocarcinoma MDA-MB-231 cells, murine hepatocytes TAMH and human cardiomyocytes AC10 were obtained from ATCC.
as §6

[14] = system: TAMH (transforming growth factor-a transgenic mouse hepatocytes); assay: MTT toxicity assay in hepatocytes TAMH; details: read-out: EC50 TAMH, exposure time 72 hours
Protocol: as §7
Inhibition of cell viability assay. The cytotoxicity of the compounds was determined by colorimetric MTT assay. The cells were harvested from culture flasks by trypsinization and seeded into Cellstar 96-well microculture plates at the seeding density of 6000 cells per well (6×10^4 cells/mL). TAMH and AC10 cells were seeded at 12000 and 5000 cells per well, respectively. After cells were allowed to resume exponential growth for 24 hours, they were exposed to drugs at different concentrations in media for 72 hours. The drugs were diluted in complete medium at the desired concentration and added to each well (100 μL) and serially diluted to other wells. After exposure for 72 hours, the media was replaced with MTT in media (5 mg/mL, 100 μL) and incubated for additional 45 minutes. Subsequently, the medium was aspirated and the purple formazan crystals formed in viable cells were dissolved in DMSO (100 μL). Optical densities were measured at 570 nm using the BioTek H1 Synergy microplate reader. […] Evaluation was based on means from at least three independent experiments, each comprising six replicates per concentration level. […]

MDA-MB-231 tumors [15] = system: MDA-MB-231 tumors
Protocol: as §1
Luciferase-transfected MDA-MB-231 cells were injected into […] 2 fat pads near inguinal nipples and tumor growth was controlled by bioluminescent imaging.

[16] = target: protein kinase B beta (PKBβ) (Homo sapiens, UniProt P31751, S474D); assay: Kinase screening, radioactive 33P-ATP filter-binding assay, PKBβ; details: 10 μM of 3met
Protocol: as §5

[17] = target: extracellular signal-regulated kinase 1 (ERK1) (Homo sapiens, UniProt P27361); assay: Kinase screening, radioactive 33P-ATP filter-binding assay, ERK1; details: 10 μM of 3met
Protocol: as §5

MDA-MB-231 cells [18] = assay: Cellular accumulation of Au by ICP-MS; details: ICP-MS after 24 hour exposure at 1.4 μM
Protocol: Cellular accumulation of Au complexes was determined in MDA-MB-231 cells. Cells were seeded into Cellstar 6-well plates (Greiner Bio-one) at a density of 60×10^4 cells/well (2 mL per well). After the cells were allowed to resume exponential growth for 24 hours, they were exposed to compounds of interest at various concentrations for 24 hours at 37° C. The cells were washed twice with 1 mL of PBS and lysed with RIPA lysis buffer for 5-10 min at 4° C. The cell lysates were scraped from the wells and transferred to separate 1.5 mL microtubes. The supernatant was then collected after centrifugation (13000 rpm, 4° C. for 15 minutes) and total protein content of each sample was quantified via Bradford's assay. […] The resulting solution was diluted to 1 mL (2-4% v/v HNO3) with ultrapure Milli-Q water. Au content of each sample was quantified by ICP-MS. Re was used as an internal standard. […] Metal standards for calibration curve (0, 0.5, 1, 2, 5, 10, 20, 40 ppb) were freshly prepared before each measurement. All readings were made in triplicates in He mode.

[19] = system: LC3-II, p62, Ulk1 (Ser757); assay: Western blot, autophagy markers
Protocol: Western blotting. MDA-MB-231 cells were seeded into Cellstar 6-well plates (Greiner Bio-One) at a density of 60×10^4 cells/well (2 mL per well). After the cells were allowed to resume exponential growth for 24 hours, they were exposed to compounds of interest at various concentrations for 2, 6 and 24 hours. The cells were washed twice with PBS and lysed with RIPA buffer (50-100 μL) and kept for 5-10 minutes at 4° C. The samples were sonicated in ice bath (3 times for 30 seconds). The supernatant was then collected after centrifugation (1.3×10^4 rpm, 4° C. for 15 minutes) and total protein content of each sample was quantified via Bradford's assay. Equal quantities of protein (50 μg) were reconstituted in loading buffer (5× Laemmli Buffer with 5% DTT) and heated at 100° C. for 10 minutes. Subsequently, the protein mixtures were resolved on a 8%, 10% or 12% SDS-PAGE gel by electrophoresis (90 V for 30 minutes followed by 120 V for 60 minutes) and transferred onto a nitrocellulose membrane (200 mA for 2 hours). The protein bands were visualised with Ponceau S stain solution and the nitrocellulose membranes were cut into strips based on the protein ladder. The membranes were washed with a TBS-T wash buffer (0.1% Tween-20 in 1×PBS) 3 times for 5 minutes. Subsequently, they were blocked in 5% BSA (w/v) in wash buffer for 1 hour and incubated with the appropriate primary antibodies in 5% BSA (w/v) in wash buffer at 4° C. overnight. The membranes were washed with a wash buffer 3 times for 7 minutes. After incubation with HRP-conjugated secondary antibodies in 2% BSA (w/v) in wash buffer (room temperature, 2 hours), the membranes were washed with a wash buffer 4× for 5 minutes. Immune complexes were detected with Luminata HRP substrates and analysed using enhanced chemiluminescence imaging. Actin was used as a loading control. […]
One of the hallmarks of autophagy was the conversion of cytosolic LC3-I to autophagosome-bound LC3-II which was monitored by Western Blotting.

Chain of extracellular signal-regulated kinase 1 (ERK1) (P27361 whole entry): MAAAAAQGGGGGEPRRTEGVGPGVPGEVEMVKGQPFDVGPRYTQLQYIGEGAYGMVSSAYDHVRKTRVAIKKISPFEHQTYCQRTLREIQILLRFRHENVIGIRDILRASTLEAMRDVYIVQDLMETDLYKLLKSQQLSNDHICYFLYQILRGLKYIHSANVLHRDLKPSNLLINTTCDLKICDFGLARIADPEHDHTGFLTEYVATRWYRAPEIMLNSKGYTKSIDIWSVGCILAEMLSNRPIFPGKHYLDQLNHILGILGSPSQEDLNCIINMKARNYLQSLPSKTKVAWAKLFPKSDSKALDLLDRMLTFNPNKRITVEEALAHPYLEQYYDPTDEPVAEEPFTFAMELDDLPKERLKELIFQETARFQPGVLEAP
Chain of insulin receptor (IR) (P06213 1001-1382 limits assumed): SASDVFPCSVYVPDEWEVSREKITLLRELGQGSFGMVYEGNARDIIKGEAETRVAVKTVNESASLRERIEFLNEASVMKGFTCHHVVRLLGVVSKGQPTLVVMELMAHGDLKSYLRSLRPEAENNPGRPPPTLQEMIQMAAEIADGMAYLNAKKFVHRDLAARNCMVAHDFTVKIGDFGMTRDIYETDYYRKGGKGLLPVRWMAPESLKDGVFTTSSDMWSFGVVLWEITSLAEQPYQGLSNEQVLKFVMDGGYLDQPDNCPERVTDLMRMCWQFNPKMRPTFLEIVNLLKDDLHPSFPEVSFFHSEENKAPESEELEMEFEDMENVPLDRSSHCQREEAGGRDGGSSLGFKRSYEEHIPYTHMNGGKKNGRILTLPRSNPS
Chain of protein kinase B beta (PKBβ) (P31751 120-481 S474D limits assumed): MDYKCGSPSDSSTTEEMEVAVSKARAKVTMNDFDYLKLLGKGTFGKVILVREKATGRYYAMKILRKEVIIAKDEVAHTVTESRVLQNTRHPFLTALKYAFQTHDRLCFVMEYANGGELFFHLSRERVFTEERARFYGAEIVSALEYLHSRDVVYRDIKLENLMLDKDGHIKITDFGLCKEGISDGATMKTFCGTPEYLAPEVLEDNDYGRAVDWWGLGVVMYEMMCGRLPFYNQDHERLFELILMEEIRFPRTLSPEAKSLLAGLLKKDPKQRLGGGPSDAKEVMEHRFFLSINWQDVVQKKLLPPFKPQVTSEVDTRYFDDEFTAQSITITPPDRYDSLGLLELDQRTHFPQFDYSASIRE

CN(C)C1=[NH+][Au-]2([NH]C(N)=N1)[c]1ccccc1C(=O)c1cccc[n+]12.F[P-](F)(F)(F)(F)F (stereo not shown) [Compound 3met]
CHOP expression over time (BiP, CHOP, p-elF2α): time-dependent increase of CHOP | non-mitochondrial respiration (MDA-MB-231 cells [1]; 24 hours): not significantly inhibited | mitochondrial bioenergetic parameters (OCR) (MDA-MB-231 cells [1]; 24 hours, increasing concentrations): dose-dependent progressive decrease of all mitochondrial bioenergetic parameters | concentration significantly inhibiting mitochondrial respiration (MDA-MB-231 cells [1]; as low as): 1.5 µM | RF (Resistance Factor) ([2]; IC50 (A2780cisR)/IC50 (A2780)): 4 | EC50 ([2]; read-out: EC50 A2780cisR, MTT assay, exposure time 72 hours): 0.53 ± 0.07 µM | stability, detection of molecular ion [M]+ [3]: stable for 24 hours | EC50 [4]: 0.15 ± 0.03 µM | inflammatory cells infiltration of tumors (MDA-MB-231 tumors [5]; H&E): marked inflammatory cells infiltration | Area (MDA-MB-231 tumors [5]; single tumor image): 23769502 μm^2 and 27637537.7 μm^2 and 28709913 μm^2 | Necrosis % (MDA-MB-231 tumors [5]; single tumor image): 32.52% and 41% and 26.24% | Necrosis area (MDA-MB-231 tumors [5]; single tumor image): 7.73 mm^2 and 11.33 mm^2 and 7.533 mm^2 | Perimeter (MDA-MB-231 tumors [5]; single tumor image): 20891.3 μm and 25672.2 μm and 21813.3 μm | Tumor % (MDA-MB-231 tumors [5]; single tumor image): 60.11% and 34.58% and 66.37% | Tumor area (MDA-MB-231 tumors [5]; single tumor image): 14.29 mm^2 and 9.556 mm^2 and 19.05 mm^2 | EC50 [6]: 0.72 ± 0.08 µM | inhibition of IR kinase (insulin receptor (IR)): 70% | decrease of peak area of 3met+ (M+) signal ([7]; 1 eq. GSH, ammonium carbonate): more than 27 fold | increase of peak area of metformin signal (m/z 130.1078) ([7]; 1 eq. GSH, ammonium carbonate, after 3 hours): more than 5 fold | reactivity towards GSH / ligand release in words ([7]; with GSH, HR-MS and UV-vis): time-dependent release of metformin | increase of 3met activity in presence of 3-MA (MDA-MB-231 cells [8]; 3-methyladenine 2 mM, 24 hours): more than 2 times | abrogation of 3met-induced cell death by cycloheximide (MDA-MB-231 cells [8]; CHX 12.5 μM, 24 hours): ≈ 3.5 times | abrogation of 3met activity by SP600125 (MDA-MB-231 cells [8]; JNK inhibitor SP600125 20 μM): ≈ 1.7 fold | IC50 (rat liver TrxR): 0.0013 ± 0.0003 µM | glycolytic parameters (ECAR), low concentration (MDA-MB-231 cells [9]; 0.05 μM, 24 hours): significant increase of all glycolytic parameters | glycolytic reserve (ECAR), higher concentration (MDA-MB-231 cells [9]; 1.5 μM, 24 hour exposure): significantly declined glycolytic reserve | Au biodistribution in words [10]: selectively accumulated in tumors | weight loss ([11]; 20 mg/kg, day 6): 11% and 10% | dose-limiting toxicity ([11]; histopathological changes): kidney and liver toxicity | maximum tolerated dose (MTD) ([11]; intraperitoneal route, daily for 4-5 days): 15 mg/kg | JNK phosphorylation [12]: JNK phosphorylation already at 0.5 EC50 drug concentrations | EC50 [13]: 7.4 ± 3 µM | EC50 [14]: 2.7 ± 0.7 µM | tumor growth (MDA-MB-231 tumors [15]; 15 mg/kg i.p., weeks 3, 4 and 5, vs vehicle): no tumor growth was observed after week 3 | deaths in drug-treated group (MDA-MB-231 tumors [15]; 15 mg/kg, 7 mice per group): Two mice died | kidney histopathology (MDA-MB-231 tumors [15]; H&E, endpoint, 5 weeks): distorted glomeruli, dilated tubules, edema exudate, light necrosis | liver histopathology (MDA-MB-231 tumors [15]; H&E, endpoint, 5 weeks): vacualization, fatty changes, periportal lymphoid infiltration and expansion of Disse space in A and B, and focal necrosis in C | inhibition of PKBβ [16]: 100% | inhibition of ERK1 [17]: 90% | Cellular accumulation MDA-MB-231 (MDA-MB-231 cells [18]): 1.37 ± 0.48 nmol Au/mg protein | Ulk1 phosphorylation at Ser757 ([19]; 2EC50, 24 hours): marked dephosphorylation of Ulk1 at Ser757 site | p62 levels ([19]; MDA-MB-231): increase of p62 levels | LC3-II expression ([19]; MDA-MB-231, concentration- and time-dependent): significantly enhanced the expression of LC3-II
